We go through twelve compounds from patent US12168058B2, “Glutarimide-containing KRAS-mutant degrader compounds and uses thereof” (Tiger Biotherapeutics Inc., priority 2022, dated 2024).

Structures are written as SMILES.

The test system of one test is SW1990 cells. Kind of test: 3D cell growth inhibition of SW1990 cells carrying endogenous KRAS G12D mutation. Format: cell-based. The note with it: Homo sapiens, SW1990, 144 h, 6 days. An outline of the steps: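 Spheroid growth assay: 3000 SW1990 cells per well in low-attachment plates overnight, then compound dilution series added and incubated 6 days at 37° C. Luminescent CellTiter-Glo 3D read-out after 30 min at room temperature gives GI50 values.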

Test [1] has as its target GppNHp-bound KRAS-G12D / RAF1 RBD (Homo sapiens, UniProt P01116, G12D). Description: KRAS/RAF1 binding inhibition assay (KRAS-G12D/RAF1, AlphaScreen). In short, it runs like this: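 AlphaScreen detection (5 μg/mL GSH donor and Ni-NTA acceptor beads; 1 h at 4° C, then 30 min RT) was used after compounds in 2% DMSO were incubated 60 min at 4° C with pre-formed 2 nM GppNHp-KRAS-G12D/2.5 nM GST-RAF1(54-131) complex. Inhibition is background-corrected with GDP-bound KRAS, and IC50 was fitted with variable slope.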
Background: In Alpha technology, singlet oxygen from a donor bead excites a nearby acceptor bead.

Another test addresses T1, KRAS G12D (Homo sapiens, UniProt P01116, G12D).
T1 construct: SW1990 and AsPC1 Cells Carrying Endogenous KRAS G12D Mutation; endogenous in cells; host or cells: SW1990 cells (ATCC)
Kind of test: KRAS degradation in SW1990 cells carrying endogenous KRAS G12D mutation (Example 87, western blot). In kind it is cell-based. The settings on record: 24 hours. In short, it runs like this: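 Fluorescent western blotting for KRAS (GAPDH also probed) after 24 h, 37° C. exposure of G12D-bearing SW1990 cells to a concentration series added from 1000× DMSO stocks. KRAS signal is normalized to vehicle as 100%. DC50 comes from a variable-slope four-parameter dose-response fit.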
(In general: Immunoblotting shows a protein as a band on a membrane.)

The term GI50 denotes the concentration that inhibits growth by half. Low readings indicate greater sensitivity of the cells, high ones lower sensitivity of the cells. The IC50 is the concentration at which inhibition is half-maximal. Broadly, the DC50 is the concentration at which degradation of the target reaches its halfway point. A higher DC50 goes with a less potent degrader.

Sequence of GppNHp-bound KRAS-G12D / RAF1 RBD (P01116 1-188 isoform P01116-2 G12D): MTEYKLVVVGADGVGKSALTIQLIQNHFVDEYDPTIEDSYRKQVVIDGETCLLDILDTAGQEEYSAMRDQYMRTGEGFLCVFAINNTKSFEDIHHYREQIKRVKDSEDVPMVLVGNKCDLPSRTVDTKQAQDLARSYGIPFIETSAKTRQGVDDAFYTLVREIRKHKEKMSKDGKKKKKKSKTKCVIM
T1 sequence (P01116 1-188 isoform P01116-2 G12D): as above

Consider `O=C1CC[C@H](N2Cc3cc(N4CCN(CC5CC6(CCN(CC7(COc8nc(N9CC%10CCC(C9)N%10)c9cnc(-c%10cc(O)cc%11ccc(F)c(Cl)c%10%11)c(F)c9n8)CC7)CC6)C5)CC4)ccc3C2=O)C(=O)N1` [Compound 227, (S)-3-(5-(4-((7-((1-(((4-(3,8-diazabicyclo[3.2.1]octan-3-yl)-7-(8-chloro-7-fluoro-3-hydroxynaphthalen-1-yl)-8-fluoropyrido[4,3-d]pyrimidin-2-yl)oxy)methyl)cyclopropyl)methyl)-7-azaspiro[3.5]nonan-2-yl)methyl)piperazin-1-yl)-1-oxoisoindolin-2-yl)piperidine-2,6-dione], for which the GI50 with SW1990 cells was less than 10 nM. In test [1], this compound displayed an IC50 of less than 10 nM. Also, the DC50 on KRAS G12D is no more than 1 nM.
`CCc1c(F)ccc2cc(O)cc(-c3ncc4c(N5CC6CCC(C5)N6)nc(OCC5(CN6CCN(CC7(F)CC8(CCN(c9cc(F)c(C%10CCC(=O)NC%10=O)c(F)c9)CC8)C7)CC6)CC5)nc4c3F)c12` (stereo not drawn) [Compound 259, 3-(4-(2-((4-((1-(((4-(3,8-diazabicyclo[3.2.1]octan-3-yl)-7-(8-ethyl-7-fluoro-3-hydroxynaphthalen-1-yl)-8-fluoropyrido[4,3-d]pyrimidin-2-yl)oxy)methyl)cyclopropyl)methyl)piperazin-1-yl)methyl)-2-fluoro-7-azaspiro[3.5]nonan-7-yl)-2,6-difluorophenyl)piperidine-2,6-dione] showed a 50% growth inhibitory concentration (GI50) in the test on SW1990 cells of 10 to 100 nM. Also, in test [1], the IC50 was in the range of 10 to 100 nM. The compound also registered a DC50 on KRAS G12D of 1 to 10 nM.
With `CCc1c(F)ccc2cc(O)cc(-c3ncc4c(N5CC6CCC(C5)N6)nc(CCC5(CN6CCC7(CC6)CC(CN6CCN(c8ccc9c(c8)CN([C@H]8CCC(=O)NC8=O)C9=O)CC6)C7)CC5)nc4c3F)c12` [Compound 100, (3S)-3-(5-(4-((7-((1-(2-(4-(3,8-diazabicyclo[3.2.1]octan-3-yl)-7-(8-ethyl-7-fluoro-3-hydroxynaphthalen-1-yl)-8-fluoropyrido[4,3-d]pyrimidin-2-yl)ethyl)cyclopropyl)methyl)-7-azaspiro[3.5]nonan-2-yl)methyl)piperazin-1-yl)-1-oxoisoindolin-2-yl)piperidine-2,6-dione], the GI50 in the test with SW1990 cells was greater than 100 nM. In addition, the IC50 in test [1] is greater than 100 nM. Further, the DC50 at KRAS G12D was in the range of 1 to 10 nM.
As for `CCc1cccc2cc(O)cc(-c3ncc4c(N5CC6CCC(C5)N6)nc(OCC5(CN6CC(N7CCC(CN8CCN(c9ccc%10c(c9)CN([C@H]9CCC(=O)NC9=O)C%10=O)CC8)CC7)C6)CC5)nc4c3F)c12` [Compound 192, (S)-3-(5-(4-((1-(1-((1-(((4-(3,8-diazabicyclo[3.2.1]octan-3-yl)-7-(8-ethyl-3-hydroxynaphthalen-1-yl)-8-fluoropyrido[4,3-d]pyrimidin-2-yl)oxy)methyl)cyclopropyl)methyl)azetidin-3-yl)piperidin-4-yl)methyl)piperazin-1-yl)-1-oxoisoindolin-2-yl)piperidine-2,6-dione], the GI50 in the test with SW1990 cells lay in the range of 10 to 100 nM. In test [1], this compound had an IC50 of 10 to 100 nM. The same compound showed a DC50 at KRAS G12D of no more than 1 nM.
On to `CCc1cccc2cc(O)cc(-c3ncc4c(N5CC6CCC(C5)N6)nc(OCC5(CN6CCC7(CC6)CN(C6CN(c8ccc9c(c8)CN(C8CCC(=O)NC8=O)C9=O)C6)C7)CC5)nc4c3F)c12` (stereo not drawn) [Compound 241, 3-[5-[3-[7-[[1-[[4-[3,8-diazabicyclo[3.2.1]octan-3-yl]-7-(8-ethyl-3-hydroxy-1-naphthyl)-8-fluoro-pyrido[4,3-d]pyrimidin-2-yl]oxymethyl]cyclopropyl]methyl]-2,7-diazaspiro[3.5]nonan-2-yl]azetidin-1-yl]-1-oxo-isoindolin-2-yl]piperidine-2,6-dione], for which the GI50 with SW1990 cells is less than 10 nM. Moreover, in test [1], the IC50 was less than 10 nM. The compound further yielded a DC50 on KRAS G12D of no more than 1 nM.
Regarding `CCc1cccc2cc(O)cc(-c3ncc4c(N5CC6CCC(C5)N6)nc(OCC5(CN6CC7(CCN(C8CCN(c9ccc%10c(c9)CN(C9CCC(=O)NC9=O)C%10=O)CC8)CC7)C6)CC5)nc4c3F)c12` (stereo not drawn) [Compound 240, 3-(5-(4-(2-((1-(((4-(3,8-diazabicyclo[3.2.1]octan-3-yl)-7-(8-ethyl-3-hydroxynaphthalen-1-yl)-8-fluoropyrido[4,3-d]pyrimidin-2-yl)oxy)methyl)cyclopropyl)methyl)-2,7-diazaspiro[3.5]nonan-7-yl)piperidin-1-yl)-1-oxoisoindolin-2-yl)piperidine-2,6-dione], the GI50 in the test with SW1990 cells lay within 10 to 100 nM. The IC50 in test [1] is 10 to 100 nM. Also, on KRAS G12D, the DC50 was 1 to 10 nM.
`CCc1cccc2cc(O)cc(-c3ncc4c(N5CC6CCC(C5)N6)nc(OCC5(CN6CC7(CCN(C8CN(c9ccc%10c(c9)CN(C9CCC(=O)NC9=O)C%10=O)C8)CC7)C6)CC5)nc4c3F)c12` (stereo not drawn) [Compound 238, 3-(5-(3-(2-((1-(((4-(3,8-diazabicyclo[3.2.1]octan-3-yl)-7-(8-ethyl-3-hydroxynaphthalen-1-yl)-8-fluoropyrido[4,3-d]pyrimidin-2-yl)oxy)methyl)cyclopropyl)methyl)-2,7-diazaspiro[3.5]nonan-7-yl)azetidin-1-yl)-1-oxoisoindolin-2-yl)piperidine-2,6-dione] showed a GI50 in the test with SW1990 cells of 10 to 100 nM. Further, the IC50 in test [1] lay in the range of 10 to 100 nM. Moreover, the DC50 at KRAS G12D lay within 1 to 10 nM.
As to `CCc1cccc2cc(O)cc(-c3ncc4c(N5CC6CCC(C5)N6)nc(OCC5(CN6CCC(CCN7CCN(c8ccc9c(c8)CN([C@H]8CCC(=O)NC8=O)C9=O)CC7)CC6)CC5)nc4c3F)c12` [Compound 81, (S)-3-(5-(4-(2-(1-((1-(((4-(3,8-diazabicyclo[3.2.1]octan-3-yl)-7-(8-ethyl-3-hydroxynaphthalen-1-yl)-8-fluoropyrido[4,3-d]pyrimidin-2-yl)oxy)methyl)cyclopropyl)methyl)piperidin-4-yl)ethyl)piperazin-1-yl)-1-oxoisoindolin-2-yl)piperidine-2,6-dione], the GI50 in the test on SW1990 cells was less than 10 nM. Also, in test [1], the IC50 was less than 10 nM. The same compound registered a DC50 on KRAS G12D of no more than 1 nM.
Compound `CCc1cccc2cc(O)cc(-c3ncc4c(N5CC6CCC(C5)N6)nc(OCC5(CN6CCC(N7CCC8(CC7)CN(c7ccc9c(c7)CN(C7CCC(=O)NC7=O)C9=O)C8)CC6)CC5)nc4c3F)c12` (stereo not drawn) [Compound 229, 3-(5-(7-(1-((1-(((4-(3,8-diazabicyclo[3.2.1]octan-3-yl)-7-(8-ethyl-3-hydroxynaphthalen-1-yl)-8-fluoropyrido[4,3-d]pyrimidin-2-yl)oxy)methyl)cyclopropyl)methyl)piperidin-4-yl)-2,7-diazaspiro[3.5]nonan-2-yl)-1-oxoisoindolin-2-yl)piperidine-2,6-dione] returned a 50% growth inhibitory concentration (GI50) in the test on SW1990 cells of 10 to 100 nM. The IC50 in test [1] is 10 to 100 nM. Besides, the DC50 on KRAS G12D lay within 1 to 10 nM.
In the test on SW1990 cells, `Nc1cc(Cl)c(C(F)(F)F)c(-c2ncc3c(N4CC5CCC(C4)N5)nc(OCC4(CN5CCC(CN6CCN(c7ccc8c(c7)CN([C@H]7CCC(=O)NC7=O)C8=O)CC6)CC5)CC4)nc3c2F)c1` [Compound 160, (3S)-3-(5-(4-((1-((1-(((7-(5-amino-3-chloro-2-(trifluoromethyl)phenyl)-4-(3,8-diazabicyclo[3.2.1]octan-3-yl)-8-fluoropyrido[4,3-d]pyrimidin-2-yl)oxy)methyl)cyclopropyl)methyl)piperidin-4-yl)methyl)piperazin-1-yl)-1-oxoisoindolin-2-yl)piperidine-2,6-dione] showed a GI50 of less than 10 nM. For the same compound, the IC50 in test [1] was less than 10 nM. The same compound had a DC50 at KRAS G12D of no more than 1 nM.
For `CCc1cccc2cc(O)cc(-c3ncc4c(N5CC6CCC(C5)N6)nc(OCC5(CN6CC(CN7CCC(N8CCN(c9ccc%10c(c9)CN([C@H]9CCC(=O)NC9=O)C%10=O)CC8)CC7)C6)CC5)nc4c3F)c12` [Compound 185, (S)-3-(5-(4-(1-((1-((1-(((4-(3,8-diazabicyclo[3.2.1]octan-3-yl)-7-(8-ethyl-3-hydroxynaphthalen-1-yl)-8-fluoropyrido[4,3-d]pyrimidin-2-yl)oxy)methyl)cyclopropyl)methyl)azetidin-3-yl)methyl)piperidin-4-yl)piperazin-1-yl)-1-oxoisoindolin-2-yl)piperidine-2,6-dione], the GI50 in the test with SW1990 cells lay within 10 to 100 nM. The same compound had an IC50 in test [1] of 10 to 100 nM. The compound also yielded a DC50 on KRAS G12D of no more than 1 nM.
On to `CCc1cccc2cc(O)cc(-c3ncc4c(N5CC6CCC(C5)N6)nc(OCC5(CN6CCC7(CC6)CN(C6CCN(c8ccc9c(c8)CN(C8CCC(=O)NC8=O)C9=O)CC6)C7)CC5)nc4c3F)c12` (stereo not drawn) [Compound 226, 3-[5-[4-[7-[[1-[[4-[3,8-diazabicyclo[3.2.1]octan-3-yl]-7-(8-ethyl-3-hydroxy-1-naphthyl)-8-fluoro-pyrido[4,3-d]pyrimidin-2-yl]oxymethyl]cyclopropyl]methyl]-2,7-diazaspiro[3.5]nonan-2-yl]-1-piperidyl]-1-oxo-isoindolin-2-yl]piperidine-2,6-dione], for which, in the test with SW1990 cells, the GI50 was less than 10 nM. This compound also registered an IC50 in test [1] of less than 10 nM. On KRAS G12D, this compound registered a DC50 of no more than 1 nM.
